Assay results reported in patent publication US7250423B2, “Methods for synthesizing heterocycles and therapeutic use of the heterocycles for cancers” (priority 2001, dated 2007).

How the values were obtained:
Format in all cases: cell-based, human
[1] = system: MCF7 (Breast); test: 3-cell line, one dose primary anticancer assay (NCI); settings: 1.000E−04 Molar, 48 hours, percent of growth vs untreated control cells; negative numbers indicate cell kill
Experimental: (§1) The following cell culture tests were performed by the National Cancer Institute of the National Institute of Health. The compounds listed below have been evaluated in the 3-cell line, one dose primary anticancer assay. The compounds which pass our criteria for activity in this assay will be scheduled automatically for evaluation against the full panel of 60 tumor cell lines. For the past 10 years, the Development Therapeutic Program (DTP), Division of Cancer Treatment and Diagnosis (DCTD), National Cancer Institute (NCI) has used an in vitro model consisting of 60 human tumor cell lines as the primary anticancer screen [Ref: J. Natl, Cancer Inst., 83:757-766, 1991].
(§2) 95% of the actives from the 60 cell line screen can be identified using only three cell lines. For this reason, the DTP has now begun using, as its primary anticancer assay, a 3-cell line panel consisting of the MCF7 (Breast), NCI-H460 (Lung), and SF-268 (CNS). This 3-cell line, one-dose assay has been in use by DTP for several years for the evaluation of combinatorial libraries and has proven to be an effective pre-screen.
(§3) In the current protocol, each cell line is inoculated and preincubated on a microtiter plate. Test agents are then added at a single concentration and the culture incubated for 48 hours. End-point determinations are made with alamar blue (Biotechniques 21(5) 780-782 (1996)). Results for each test agent are reported as the percent of growth of the treated cells when compared to the untreated control cells. Compounds which reduce the growth of any one of the cell lines to approximately 32% or less (negative numbers indicate cell kill) are passed on for evaluation in the full panel of 60 cell lines over a 5-log dose range.

[2] = system: NCI-H460 (Non Small Cell Lung); test: as above; settings: 1.000E−04 Molar, 48 hours, percent of growth vs untreated control cells; negative numbers indicate cell kill
Experimental: as §1, §2, §3

[3] = system: SF-268 (CNS); test: as above; settings: 1.000E−04 Molar, 48 hours, percent of growth vs untreated control cells; negative numbers indicate cell kill
Experimental: as §1, §2, §3

[4] = system: CAKI-1 (renal cancer); test: 60 cell-line tests
Experimental: as §1, §3

[5] = system: CCRF-CEM (and other leukemia cancer cells); test: 60 cell-line tests
Experimental: as §1, §3

[6] = system: Delta cancer cell lines; test: 60 cell-line tests
Experimental: as §1, §3

[7] = system: HCT (colon cancer); test: 60 cell-line tests
Experimental: as §1, §3

[8] = system: NCI-H522 (non-samll cell lung cancer); test: 60 cell-line tests
Experimental: as §1, §3

[9] = system: PC-3 (prostate cancer); test: 60 cell-line tests
Experimental: as §1, §3

[10] = system: DU-145 (prostate cancer); test: 60 cell-line tests; settings: even at 1.000E-08 molar concentration
Experimental: as §1, §3

[11] = system: EKVX (non-small cell lung cancer); test: 60 cell-line tests; settings: even at 1.000E-08 molar concentration
Experimental: as §1, §3

[12] = system: MDA-MB-435 (breast cancer); test: 60 cell-line tests; settings: even at 1.000E-08 molar concentration
Experimental: as §1, §3

[13] = system: SF-539 (CNS cancer); test: 60 cell-line tests; settings: even at 1.000E-08 molar concentration
Experimental: as §1, §3

[14] = system: other cell lines; test: 60 cell-line tests; settings: other cell lines of the 60 cell-line panel
Experimental: as §1, §3

Row | Molecule | Growth Percentage (Breast) MCF7 [1] | Growth Percentage (Non Small Cell Lung) NCI-H460 [2] | Growth Percentage (CNS) SF-268 [3] | selectivity for cancer cells [4] | selectivity for cancer cells [5] | selectivity for cancer cells ([6]; Delta cancer) | selectivity for cancer cells [7] | selectivity for cancer cells [8] | selectivity for cancer cells [9] | killing of cancer cells [10] | killing of cancer cells ([6]; Delta cancer cell lines, even at 1.000E-08 molar concentration) | killing of cancer cells [11] | killing of cancer cells [12] | killing of cancer cells ([9]; even at 1.000E-08 molar concentration) | killing of cancer cells [13] | effect against other cell lines [14]
1 | OCCCCC1Nc2ccc(O)cc2C2OCCCC12 (stereo not shown) [5-1, 3,4,4a,5,6,10b-hexahydro-5-(4-hydroxybutyl)-9-hydroxy-2H-pyrano[3,2-c]quinoline] | 0% | 29% | 2% | moderately selective | moderately selective | highly selective | moderately selective | moderately selective | highly selective |  |  |  |  |  |  | 
2 | OCCCCC1Nc2ccc(Nc3ccccc3)cc2C2OCCCC12 (stereo not shown) [3-1, 3,4,4a,5,6,10b-hexahydro-5-(4-hydroxybutyl)-9-phenylamino-2H-pyrano[3,2-c]quinoline] | −1% | −1% | −1% |  |  |  |  |  |  | highly potent and selectively killed | highly potent and selectively killed | highly potent and selectively killed | highly potent and selectively killed | highly potent and selectively killed | highly potent and selectively killed | very week effect
3 | CN(C)c1ccc2c(c1)C1OCCC1C(CCCO)N2 (stereo not shown) [3-3, 2,3,3a,4,5,9b-hexahydro-4-(3-hydroxypropyl)-8-dimethylamino-furano[3,2-c]quinoline] | 7% | 100% | 77% |  |  |  |  |  |  |  |  |  |  |  |  | 
4 | 6,6a,7,8-tetrahydro-7-(2-o-hydroxyphenyl)ethyl-2H-benzopyrano[3,2-a]quinoline [4-1] | 0% | 0% | 0% |  |  |  |  |  |  |  |  |  |  |  |  | 
5 | OCCCC1Nc2ccc(Nc3ccccc3)cc2C2OCCC12 (stereo not shown) [3-2, 2,3,3a,4,5,9b-hexahydro-4-(3-hydroxypropyl)-8-phenylamino-furano[3,2-c]quinoline] | 0% | 57% | 22% |  |  |  |  |  |  |  |  |  |  |  |  | 
